Measured values reported in US6329405A, “Cyclobutene derivatives, their preparation and their therapeutic uses” (Sankyo Company, Limited, priority 1999, dated 2001).

Experiments:
[1] = target: T1, human ileal bile acid transporter (Homo sapiens, UniProt Q12908); experiment: Measurement of Bile Acid Transporter Inhibitory Activity in vitro (uptake of [3H]-taurocholic acid into hIBAT-expressing Caco-2 cells); format: cell-based; conditions: 0.1 μCi [3H]-taurocholic acid, 37° C., 1 hour
T1 construct: expressed in transfected cells
T1 sequence (Q12908 1-348): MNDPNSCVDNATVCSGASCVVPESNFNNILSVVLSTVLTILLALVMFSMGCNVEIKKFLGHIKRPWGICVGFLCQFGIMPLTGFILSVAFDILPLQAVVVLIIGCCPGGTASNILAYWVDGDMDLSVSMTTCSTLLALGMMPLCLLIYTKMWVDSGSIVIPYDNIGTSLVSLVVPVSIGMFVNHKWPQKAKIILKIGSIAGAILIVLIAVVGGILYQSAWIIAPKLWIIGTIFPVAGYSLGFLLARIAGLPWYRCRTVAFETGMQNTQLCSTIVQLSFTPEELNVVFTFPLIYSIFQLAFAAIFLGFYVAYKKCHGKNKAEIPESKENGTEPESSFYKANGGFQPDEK
Excerpt: Measurement of Bile Acid Transporter Inhibitory Activity in vitro
1) Insertion of human ileal bile acid transporter cDNA into a mammalian expression vector
Human ileal bile acid transporter cDNA (GenBank accession number U10417, hereinafter abbreviated as "hIBAT") was amplified by PCR using a human kidney cDNA library ("Marathon-Ready"™, Clontech Laboratories) as a template. The sense oligonucleotide primer used was 5'-[…]-3' (corresponding to residues 512-533 of hIBAT cDNA: Sequence ID No. 1) while the antisense oligonucleotide primer used was 5'-[…]-3' (corresponding to residues 1649-1670 of hIBAT cDNA: Sequence ID NO. 2). […]
After incubation, the cells were washed 5 times with ice cooled PBS (phosphate buffered saline) containing 0.2% bovine serum albumin and 1 mM non-radioactive taurocholic acid. […] Radioactivity was measured using a "Top Count" (Packard) liquid scintillation counter.
By measuring the radioactivity of the control (no text compound) and comparing this with the radioactivity obtained from the cells exposed to test compound at various, predetermined concentrations, it was possible to determine a percentage inhibition (%) and to obtain an IC50 for the test compound against the ileal bile acid transporter activity.

[2] = tested on: ileal bile acid transporter; experiment: Measurement of Bile Acid Transporter Inhibitory Activity in vivo ([3H]-taurocholic acid radioactivity in gall bladder bile); set-up: species or system Syrian golden hamsters; conditions: male hamsters; oral gavage 100 mg/10 ml/kg; [3H]-taurocholic acid 1.5 hours after; gall bladder bile at 24 hours
Experimental: Measurement of Bile Acid Transporter Inhibitory Activity in vivo
Male Syrian golden hamsters were used. The hamsters were reared in cages and fed food and water ad libitum. Test compound was orally administered by gavage (100 mg/10 ml/kg) as a suspension in 0.5% w/v carboxymethyl cellulose aqueous solution. Each hamster was given orally 1 μCi of [^3 H]-taurocholic acid ([…]) in physiological saline 1.5 hours after administration of the test compound. Twenty four hours after the oral administration of [^3 H]-taurocholic acid, each of the hamsters was sacrificed and the gall bladder bile was collected. The total radioactivity in the bladder bile was determined and compared to a vehicle-treated group.
Percentage inhibition (%) was determined by the following formula:
Inhibition percentage=100-(radioactivity in the treated
group)/(radioactivity in the control group)×100

Row | IC50 [1] [µM] | SMILES | Percentage inhibition [2] [%]
1 | 13.8 | C[C@H](NC(c1ccccc1)c1cccc(Nc2c(N)c(=O)c2=O)c1)c1ccccc1 (single isomer, unassigned) [2 (isomer B)] | 61.87
2 | – | COc1ccc(C(N[C@H](C)c2cc(F)cc(F)c2)c2cccc(Nc3c(O)c(=O)c3=O)c2)cc1 (single isomer, unassigned) [64(e)] | 80.0
